The values that follow come from patent US20260234112A1, “COMPOUNDS, COMPOSITIONS, AND METHODS OF USE THEREOF” (Type6 Therapeutics, Inc., priority 2023, published 2026).

A value given as a limit tells only on which side of the number the result lay.

The experiment addresses T1, Cdk2(2-298) (Homo sapiens, UniProt P24941).
T1 construct: Biotinylated N-terminal avi-tagged Cdk2(2-298) or Cdk1(1-297) was immobilized
As to the kind of experiment: Surface Plasmon Resonance (SPR) compound interaction, Biacore 8K. In kind it is binding. The conditions noted are these: single-cycle kinetics (SCK, "S"), dissociation 1800 sec, read-out: Activity rating (KD). The procedure: Compound interaction was profiled using a Biacore 8K instrument (Cytiva). Biotinylated N-terminal avi-tagged Cdk2(2-298) or Cdk1(1-297) was immobilized on a series S sensor Chip SA at a capture level between 2500 RU and 3000 RU (Cdk2) or 7000 RU (Cdk1) in buffer (25 mM HEPES, 150 mM NaCl, 0.05% Tween20, pH 7.5). A compound dilution plate (8 concentrations, 3-fold dilution) in DMSO was prepared (100× assay concentration). From this plate, compound DMSO stock solution was transferred into buffer, yielding a final DMSO concentration of 1% in assay. The remaining buffer was supplemented with 1% DMSO. Compounds were injected in a series of increasing concentrations in multi-cycle kinetics (MCK, “M”) or single-cycle kinetics (SCK, “S”) mode at a flow rate of 30 μl/min for 120 sec and dissociation was profiled for 180 sec (MCK) or 1800 sec (SCK). Data were analysed using Biacore Insight Evaluation Software (Cytiva).
On the technique in general: In SPR one partner is held on a chip, and binding of the other changes the refractive index at the surface.
Take `Cc1ccc(Oc2ccc(NS(=O)(=O)c3ccccc3Cl)cc2F)c(-c2ccnc(N[C@H]3CC[C@H](N)CC3)n2)c1` [Compound 7, N-[4-[2-[2-[(1r,4r)(4-Aminocyclohexyl)amino]pyrimidin-4-yl]-4-methylphenoxy]-3-fluorophenyl] 2-chlorobenzenesulfonamide]: the equilibrium dissociation constant (Kd) was in the range of 11 to 100 nM.

Turning to `O=S(=O)(Nc1ccc(Oc2ccncc2-c2ccnc(N[C@H]3CCCNC3)n2)c(F)c1)c1ccccc1Cl` [Compound 34, N-[3-Fluoro-4-[[3-[2-[[(3S)-3-piperidyl]amino]pyrimidin-4-yl]-4-pyridyl]oxy]phenyl] 2-chlorobenzenesulfonamide], the Kd was ≤ 10 nM.

`N[C@H]1CC[C@H](Nc2nccc(-c3cnccc3Oc3ccc(NS(=O)(=O)c4ccccc4)c(Cl)c3)n2)CC1` [Compound 61, N-[4-[[3-[2-[(1r,4r)(4-Aminocyclohexyl)amino]pyrimidin-4-yl]-4-pyridyl]oxy]-2-chiorophenyl] benzenesulfonamide]: the Kd was 100 to 1000 nM.

With `COCCOCCN1CC(Nc2nccc(-c3cnccc3Oc3ccc(NS(=O)(=O)c4ccccc4Cl)cc3F)n2)C1` [Compound 107], the dissociation constant (Kd) fell in the range of 100 to 1000 nM.

As for `COc1ccc(Br)cc1S(=O)(=O)Nc1ccc(Oc2ccncc2-c2ccnc(N[C@H]3CC[C@H](N)CC3)n2)c(F)c1` [Compound 28, N-(4-((3-(2-((1r,4r)-4-aminocyclohexyl)amino)pyrimidin-4-yl)pyridin-4-yloxy)-3-fluorophenyl) 5-bromo-2-methoxybenzenesulfonamide], the Kd lay in the range of 100 to 1000 nM.

As to `N[C@H]1CC[C@H](Nc2nccc(-c3cc4ccccc4cc3Oc3ccc(NS(=O)(=O)c4ccccc4Cl)cc3F)n2)CC1` [Compound 23, N-[4-[2-[2-[(1r,4r)(4-Aminocyclohexyl)amino]pyrimidin-4-yl]naphthyl-3-oxy]-3-fluorophenyl] 2-chlorobenzenesulfonamide], the Kd was ≤ 10 nM.

Take `N[C@H]1CC[C@H](Nc2nccc(-c3cnccc3Oc3ccc(NS(=O)(=O)c4ccccc4)c(C(F)(F)F)c3)n2)CC1` [Compound 32, N-(4-((3-(2-(((1r,4r)-4-Aminocyclohexyl)amino)pyrimidin-4-yl)pyridin-4-yl)oxy)-2-(trifluoromethyl)phenyl) benzenesulfonamide]: the Kd is 100 to 1000 nM.

As to `N[C@H]1CC[C@H](Nc2nccc(-c3cnccc3Oc3ccc(NS(=O)(=O)c4ccccc4)c(Cl)c3F)n2)CC1` [Compound 52, N-[4-[[3-[2-[(1r,4r)(4-Aminocyclohexyl)amino]pyrimidin-4-yl]-4-pyridyl]oxy]-2-chloro-3-fluorophenyl] benzenesulfonamide], the Kd is 11 to 100 nM.

Regarding `N[C@H]1CC[C@H](Nc2nccc(-c3cnccc3Oc3ccc(NS(=O)(=O)c4cc(Cl)c(Br)cc4F)cc3F)n2)CC1` [Compound 58, N-[4-[[3-[2-[(1r,4r)(4-Aminocyclohexyl)amino]pyrimidin-4-yl]-4-pyridyl]oxy]-3-fluorophenyl] 4-bromo-5-chloro-2-fluorobenzenesulfonamide], the Kd fell in the range of 11 to 100 nM.

With `O=S(=O)(Nc1ccc(Sc2ncccc2-c2ccnc(N[C@H]3CCCNC3)n2)c(F)c1)c1ccccc1Cl` [Compound 109, N-[3-Fluoro-4-[[3-[2-[[(3S)-3-piperidyl]amino]pyrimidin-4-yl]-2-pyridyl]thio]phenyl] 2-chlorobenzenesulfonamide], the Kd is ≤ 10 nM.

Turning to `O=S(=O)(Nc1ccc(Oc2ccncc2-c2ccnc(NC3CC4(CNC4)C3)n2)c(F)c1)c1ccccc1Cl` [Compound 92], the Kd was ≤ 10 nM.

Regarding `O=S(=O)(Nc1ccc(Oc2ccncc2-c2ccnc(N[C@H]3CCCNC3)n2)c(F)c1)c1cccc2ccccc12` [Compound 70, N-[3-Fluoro-4-[[3-[2-[[(3S)-3-piperidyl]amino]pyrimidin-4-yl]-4-pyridyl]oxy]phenyl] naphthalene-1-sulfonamide], the Kd is ≤ 10 nM.

Consider `N[C@H]1CC[C@H](Nc2nccc(-c3ccccc3Oc3ccc(NS(=O)(=O)c4cccc5ccccc45)cc3F)n2)CC1` [Compound 4, N-[4-[2-[2-[(1r,4r)(4-Aminocyclohexyl)amino]pyrimidin-4-yl]phenoxy]-3-fluorophenyl] naphthalene-1-sulfonamide], for which the Kd was 100 to 1000 nM.

Take `N[C@H]1CC[C@H](Nc2nccc(-c3cnccc3Oc3ccc(NS(=O)(=O)c4ccc(CO)cc4F)c(F)c3)n2)CC1` [Compound 82, N-82[4-[[3-[2-(1r,4r)[(4-Aminocyclohexyl)amino]pyrimidin-4-yl]-4-pyridyl]oxy]-2-fluorophenyl] 2-fluoro-4-(hydroxymethyl)benzenesulfonamide]: the Kd is 100 to 1000 nM.

As for `N[C@H]1CC[C@H](Nc2nccc(-c3cnccc3Oc3ccc(NS(=O)(=O)c4ccccc4Br)cc3F)n2)CC1` [Compound 53, N-[4-[[3-[2-[(1r,4r)(4-Aminocyclohexyl)amino]pyrimidin-4-yl]-4-pyridyl]oxy]-3-fluorophenyl] 2-bromobenzenesulfonamide], the Kd was ≤ 10 nM.

With `O=S(=O)(Nc1ccc(Oc2ccncc2-c2ccnc(NCCc3ncc[nH]3)n2)c(F)c1)c1ccccc1Cl` [Compound 96], the Kd is 100 to 1000 nM.

For the molecule `CN1CC[C@H](Nc2nccc(-c3cnccc3Oc3ccc(NS(=O)(=O)c4ccccc4Cl)cc3F)n2)C1` [Compound 93], the Kd lay in the range of 100 to 1000 nM.

On to `Cc1cc(C)c(S(=O)(=O)Nc2ccc(Oc3ccncc3-c3ccnc(N[C@H]4CC[C@H](N)CC4)n3)c(F)c2)c(C)c1` [Compound 55, N-[4-[[3-[2-[(1r,4r)(4-Aminocyclohexyl)amino]pyrimidin-4-yl]-4-pyridyl]oxy]-3-fluorophenyl] 2,4,6-trimethylbenzenesulfonamide], for which the Kd lay within 100 to 1000 nM.

With `CS(=O)(=O)N1CCC[C@H](Nc2nccc(-c3cnccc3Oc3ccc(NS(=O)(=O)c4ccccc4Cl)cc3F)n2)C1` [Compound 103], the Kd was in the range of 100 to 1000 nM.

In the case of `CS(=O)(=O)Nc1ccc(Oc2ccncc2-c2ccnc(N[C@H]3CC[C@H](N)CC3)n2)c(F)c1` [Compound 40, N-(4-((3-(2-(((1r,4r)-4-aminocyclohexyl)amino)pyrimidin-4-yl)pyridin-4-yl)oxy)-3-fluorophenyl) methanesulfonamide], the Kd was 1000 to 5000 nM.

`CN(C)[C@H]1CC[C@H](Nc2nccc(-c3cnccc3Oc3ccc(NC(=O)c4ccccc4Cl)cc3F)n2)CC1` [Compound 76, N-[4-[[3-[2-[(1r,4r)(4-(N,N-Dimethylamino)cyclohexyl)amino]pyrimidin-4-yl]-4-pyridyl]oxy]-3-fluorophenyl] 2-chlorobenzamide]: the Kd lay in the range of 100 to 1000 nM.

On to `O=S(=O)(Nc1ccc(Oc2ccccc2-c2ccnc(N[C@H]3CCCNC3)n2)c(F)c1)c1ccccc1Cl` [Compound 5, N-[3-Fluoro-4-[2-[2-[[(3S)-3-piperidyl]amino]pyrimidin-4-yl]phenoxy]phenyl] 2-chlorobenzenesulfonamide], for which the Kd is ≤ 10 nM.

On to `N[C@H]1CC[C@H](Nc2nccc(-c3cnccc3Oc3ccc(NS(=O)(=O)c4ccccc4I)cc3F)n2)CC1` [Compound 65, N-[4-[[3-[2-[(1r,4r)(4-Aminocyclohexyl)amino]pyrimidin-4-yl]-4-pyridyl]oxy]-3-fluorophenyl] 2-iodobenzenesulfonamide], for which the Kd is ≤ 10 nM.

For `N[C@H]1CC[C@H](Nc2nccc(-c3ccc(I)cc3Oc3ccc(NS(=O)(=O)c4ccccc4Cl)cc3F)n2)CC1` [Compound 16, N-[4-[2-[2-[(1r,4r)(4-Aminocyclohexyl)amino]pyrimidin-4-yl]-5-iodophenoxy]-3-fluorophenyl] 2-chlorobenzenesulfonamide], the Kd was 11 to 100 nM.

In the case of `N[C@H]1CC[C@H](Nc2nccc(-c3cnccc3Oc3ccc(NS(=O)(=O)c4ccc(CCO)cc4F)c(F)c3)n2)CC1` [Compound 84, N-[4-[[3-[2-(1r,4r)[(4-Aminocyclohexyl)amino]pyrimidin-4-yl]-4-pyridyl]oxy]-2-fluorophenyl] 2-fluoro-4-(2-hydroxyethyl)benzenesulfonamide], the Kd lay in the range of 100 to 1000 nM.

On to `CN1CC2(CC(Nc3nccc(-c4cnccc4Oc4ccc(NS(=O)(=O)c5ccccc5Cl)cc4F)n3)C2)C1` [Compound 99], for which the Kd fell in the range of 100 to 1000 nM.

For `N[C@H]1CC[C@H](Nc2nccc(-c3cnccc3Oc3cc(Cl)c(NS(=O)(=O)Cc4ccccc4)cc3F)n2)CC1` [Compound 49, N-[4-[[3-[2-[(1r,4r)(4-Aminocyclohexyl)amino]pyrimidin-4-yl]-4-pyridyl]oxy]-2-chloro-5-fluorophenyl] phenylmethanesulfonamide], the Kd was 100 to 1000 nM.

`N#Cc1ccc(Oc2ccc(NS(=O)(=O)c3ccccc3Cl)cc2F)c(-c2ccnc(N[C@H]3CC[C@H](N)CC3)n2)c1` [Compound 10, N-[4-[2-[2-[(1r,4r)(4-Aminocyclohexyl)amino]pyrimidin-4-yl]-4-cyanophenoxy]-3-fluorophenyl] 2-chlorobenzenesulfonamide]: the Kd was in the range of 11 to 100 nM.

In the case of `COCCN1CC(Nc2nccc(-c3cnccc3Oc3ccc(NS(=O)(=O)c4ccccc4Cl)cc3F)n2)C1` [Compound 105], the Kd lay within 11 to 100 nM.

As to `N[C@H]1CC[C@H](Nc2nccc(-c3cnccc3Oc3ccc(NS(=O)(=O)C4CC4)cc3F)n2)CC1` [Compound 36, N-[4-[[3-[2-[(1r,4r)(4-Aminocyclohexyl)amino]pyrimidin-4-yl]-4-pyridyl]oxy]-3-fluorophenyl] cyclopropanesulfonamide], the Kd is > 5000 nM.

As a reminder, the Kd is the free concentration of one partner at which half of the binding sites on the other are occupied at equilibrium, for simple one-to-one binding.
